Data on two compounds can be found in patent US6100053A, “Microbial transglutaminases, their production and use” (priority 1994, dated 2000).

The test system of assay [1] is TGase from Bacillus badius. Nature of the assay: PMSF inhibition, putrescine assay. In kind it is biochemical. The note with it: 1.6 mM PMSF; 1 h, 30° C., pH 8.5, α-casein + EDTA; -PMSF = 100. Here is the method:
(§1) Each of these washes takes place for 5 min. […] The washed filters are counted directly in scintillation vials.
(§2) A putrescine control assay was performed to investigate whether TGases from different bacterial strains are sensitive to PMSF (phenyl methyl sulfonyl fluoride).
(§3) The assay was run under optimized conditions (see examples 1-3), i.e. 1 h incubation at 30° C., pH 8.5 (2% α-casein+EDTA in 100 mM modified Britton-Robinson-buffer 0.1 M, pH 8.5). Final concentration of PMSF was 1.6 mM. As control an assay including propanol was included: propanol is the solvent of PMSF. This assay ensures that solvent effects are excluded. The assay contained 0.9 M 2-propanol i.e. the same concentration as in PMSF containing assay (addition of 8 μl propanol from 13 M instead of 8 μl PMSF in 2-propanol).

Assay [2] has as its system TGase from Bacillus aneurinolyticus. Nature of the assay: PMSF inhibition, putrescine assay. The class given is biochemical. The note with it: 1.6 mM PMSF; 1 h, 30° C., pH 8.5, α-casein + EDTA; -PMSF = 100. The protocol:
as §1, §2, §3

Assay [3] concerns the target T1, TGase from Streptomyces lydicus (Streptomyces nigrescens, UniProt A0ABY7I822).
T1 construct: mature 331 aa, N-terminus […]
T1 sequence (A0ABY7I822 88-418): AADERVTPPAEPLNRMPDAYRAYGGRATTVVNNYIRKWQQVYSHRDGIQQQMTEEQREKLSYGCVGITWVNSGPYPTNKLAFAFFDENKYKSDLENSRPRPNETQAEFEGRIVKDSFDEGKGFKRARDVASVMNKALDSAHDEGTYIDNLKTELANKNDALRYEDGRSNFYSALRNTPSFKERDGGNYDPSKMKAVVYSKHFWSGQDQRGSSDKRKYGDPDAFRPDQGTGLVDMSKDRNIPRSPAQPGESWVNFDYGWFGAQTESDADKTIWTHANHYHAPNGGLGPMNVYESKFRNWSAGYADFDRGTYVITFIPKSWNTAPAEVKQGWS
Nature of the assay: PMSF inhibition, putrescine assay. In kind it is biochemical. Here is the method: as §1, §2, §3

For assay [4], the system named is TGase from Bacillus mycoides. Nature of the assay: PMSF inhibition, putrescine assay. In kind it is biochemical. The note with it: 1.6 mM PMSF; 1 h, 30° C., pH 8.5, α-casein + EDTA; -PMSF = 100. Here is the method: as §1, §2, §3
The subject of assay [5] is TGase from Bacillus firmus. Nature of the assay: PMSF inhibition, putrescine assay. In kind it is biochemical. As to conditions: 1.6 mM PMSF; 1 h, 30° C., pH 8.5, α-casein + EDTA; -PMSF = 100. Here is the method:
as §1, §2, §3

The test system of assay [6] is TGase from Bacteridium (CBS 495.74). Put plainly: PMSF inhibition, putrescine assay. The note with it: 1.6 mM PMSF; 1 h, 30° C., pH 8.5, α-casein + EDTA; -PMSF = 100. The class given is biochemical, Bacteridium sp. CBS 495.74. Here is the method:
as §1, §2, §3

Assay [7] deals with TGase from strain Moo5A10. Nature of the assay: PMSF inhibition, putrescine assay. In kind it is biochemical, Moo5A10 (DSM 10094). As to conditions: 1.6 mM PMSF; 1 h, 30° C., pH 8.5, α-casein + EDTA; -PMSF = 100. The protocol: as §1, §2, §3
In assay [8] the target is T2, purified transglutaminase from S. mobaraense (Streptomyces mobaraensis, UniProt P81453).
T2 sequence (P81453 77-407): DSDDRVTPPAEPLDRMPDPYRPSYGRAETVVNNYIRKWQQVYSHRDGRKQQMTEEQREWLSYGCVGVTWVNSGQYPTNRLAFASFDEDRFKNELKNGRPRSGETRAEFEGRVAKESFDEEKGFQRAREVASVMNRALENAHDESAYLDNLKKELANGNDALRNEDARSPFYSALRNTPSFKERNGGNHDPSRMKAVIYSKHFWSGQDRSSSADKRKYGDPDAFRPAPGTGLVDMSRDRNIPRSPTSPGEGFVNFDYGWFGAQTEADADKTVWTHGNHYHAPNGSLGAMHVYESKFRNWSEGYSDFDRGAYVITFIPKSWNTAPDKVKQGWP
Put plainly: PMSF sensitivity of purified transglutaminase. The class given is biochemical, Streptoverticillium mobaraense. Here is the method: as §2

Assay [9] concerns TGase from Bacteridium (DSM 10093). Put plainly: PMSF inhibition, putrescine assay. The class given is biochemical, Bacteridium sp. DSM 10093. As to conditions: 1.6 mM PMSF; 1 h, 30° C., pH 8.5, α-casein + EDTA; -PMSF = 100. Here is the method: as §1, §2, §3
Assay [10] has as its target transglutaminase from S. mobaraense (Streptomyces mobaraensis, UniProt P81453). The note with it: 1 mM inhibitor, preincubation 30 min at 25° C.; cited from earlier work.
Assay [11] has as its target Ca2+-independent transglutaminase from Streptomyces platensis (Streptomyces platensis, UniProt A5PHK5). The note with it: 50 μM inhibitor, nine fold molar excess to cysteine; 2 h at room temperature in the putrescine assay; duplicate.

A word on the residual activity: it is what remains of the control signal, in per cent.

Chain of Ca2+-independent transglutaminase from Streptomyces platensis (A5PHK5 88-418): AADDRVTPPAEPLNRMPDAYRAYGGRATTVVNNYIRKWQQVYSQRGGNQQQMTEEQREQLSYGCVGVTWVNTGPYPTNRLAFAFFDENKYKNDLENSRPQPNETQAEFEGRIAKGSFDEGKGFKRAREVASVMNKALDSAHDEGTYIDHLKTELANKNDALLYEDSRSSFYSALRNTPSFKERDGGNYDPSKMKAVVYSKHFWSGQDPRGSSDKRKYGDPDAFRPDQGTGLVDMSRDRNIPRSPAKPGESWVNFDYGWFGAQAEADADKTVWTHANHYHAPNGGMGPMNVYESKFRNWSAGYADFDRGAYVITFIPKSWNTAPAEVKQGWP

Consider `O=S(=O)(F)Cc1ccccc1` [PMSF, phenylmethylsulfonylfluoride], for which the “Relative activity (%) +PMSP” value is recorded as 62% in assay [1]; 47% in assay [2]; 175% in assay [3] (1.6 mM PMSF, 1 h, 30° C., pH 8.5, α-casein + EDTA, -PMSF = 100); 35% in assay [4]; 55% in [5]; 75% in [6]. Moreover, the “Relative activity (%) +PMSP” value in assay [7] and in assay [9] was 75% in each case. The “sensitivity to PMSF” value in [3] (purified transglutaminase) and in assay [8] was “insensitive” each time.

Turning to `O=C(O)CI` [mono-iodoacetic acid], the residual activity in assay [10] is listed as 76%; in [11] it was “no residual activity”.
